Key:
[1] = target: T1, human μ opiate receptor (Homo sapiens, UniProt P35372); experiment: Affinity for the human μ opiate receptor ([3H]-naloxone displacement, CHO-K1 receptor membrane preparation, SPA); assay type: binding; conditions: test concentration of 1 μM
T1 construct: purchased PerkinElmer Life Sciences, Zaventem, Belgium RB-HOM; host or cells: CHO-K1 cells (membrane preparation)
Method in brief: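 Test compounds, 1 nmol/l [3H]-naloxone and CHO-K1 membranes bearing the human μ opiate receptor are combined with WGA-SPA beads. After 90 minutes at room temperature, plates are centrifuged and radioactivity counted. Specific-binding inhibition at 1 μmol/l is given in percent.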

[2] = target: T2, serotonin (5-HT) reuptake (Rattus norvegicus, UniProt P31652); experiment: Inhibition of serotonin (5HT) reuptake in synaptosomes from rat brain; assay type: biochemical; conditions: test concentration of 10 μM
T2 construct: synaptosomes are freshly isolated from areas of the rat brain; from tissue; host or cells: rat brain synaptosomes (P2 fraction)
T2 sequence (P31652 whole entry): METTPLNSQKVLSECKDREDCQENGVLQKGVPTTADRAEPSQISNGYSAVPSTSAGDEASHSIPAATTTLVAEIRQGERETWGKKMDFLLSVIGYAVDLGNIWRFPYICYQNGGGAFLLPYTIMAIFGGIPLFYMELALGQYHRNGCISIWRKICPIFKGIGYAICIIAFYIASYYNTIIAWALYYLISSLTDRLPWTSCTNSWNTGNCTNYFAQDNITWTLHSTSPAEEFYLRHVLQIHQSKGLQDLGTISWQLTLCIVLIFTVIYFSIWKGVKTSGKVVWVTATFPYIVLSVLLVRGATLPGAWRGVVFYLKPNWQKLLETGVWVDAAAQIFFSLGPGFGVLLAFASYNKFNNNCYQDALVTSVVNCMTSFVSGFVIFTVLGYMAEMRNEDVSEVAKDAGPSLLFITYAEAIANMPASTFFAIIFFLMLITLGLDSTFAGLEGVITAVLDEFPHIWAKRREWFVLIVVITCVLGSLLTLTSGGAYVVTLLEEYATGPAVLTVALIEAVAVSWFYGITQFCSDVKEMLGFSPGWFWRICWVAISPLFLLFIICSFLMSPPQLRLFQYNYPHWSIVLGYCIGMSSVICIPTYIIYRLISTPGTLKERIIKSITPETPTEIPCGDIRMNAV
Method in brief: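 Compounds screened at 10 μM and reported as percent inhibition of serotonin uptake. Uptake measured in a freshly prepared P2 synaptosomal fraction from rat brain.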

T1 sequence (P35372 whole entry): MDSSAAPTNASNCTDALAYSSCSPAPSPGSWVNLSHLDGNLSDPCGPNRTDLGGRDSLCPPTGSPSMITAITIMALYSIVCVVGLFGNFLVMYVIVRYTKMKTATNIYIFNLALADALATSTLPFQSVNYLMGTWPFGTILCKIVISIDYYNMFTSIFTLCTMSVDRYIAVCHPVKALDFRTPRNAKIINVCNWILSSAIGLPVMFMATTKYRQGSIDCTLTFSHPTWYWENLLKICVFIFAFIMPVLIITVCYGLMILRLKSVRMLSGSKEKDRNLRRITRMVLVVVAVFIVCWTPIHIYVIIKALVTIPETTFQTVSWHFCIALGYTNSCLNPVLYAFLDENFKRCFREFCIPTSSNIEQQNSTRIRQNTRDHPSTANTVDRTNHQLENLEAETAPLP

| SMILES | μ (binding on the μ opioid receptor, % inhibition) [1] | 5-HT (inhibition of reuptake of serotonin, % inhibition) [2] |
| --- | --- | --- |
| COc1cc(C)c(S(=O)(=O)N2CCC(CCOCC(=O)NCCC3CCC(C(c4cccc(F)c4)N(C)C)CC3)CC2)c(C)c1C (centres unmarked) [Example 397] | 67% | 93% |
| COc1cc(C)c(S(=O)(=O)N(CCOCC(=O)NC2CCC(C(c3cccc(F)c3)N(C)C)CC2)Cc2ccccc2)c(C)c1 (centres unmarked) [Example 372] | 59% | 89% |
| Cc1cc(C)c(S(=O)(=O)N2CCC(OCC(=O)NCC3CCC(C(c4ccc(Cl)cc4)N(C)C)CC3)C2)c(C)c1 (centres unmarked) [Example 393] | 55% | 70% |
| CN(C)C(c1ccc(F)cc1)C1CCC(CNC(=O)COC2CCN(S(=O)(=O)c3ccc(Cl)cc3Cl)C2)CC1 (centres unmarked) [Example 391] | 56% | 85% |
| COc1ccc(S(=O)(=O)N2CCCCC2CCOCC(=O)NCCC2CCC(C(c3ccc(Cl)cc3)N(C)C)CC2)cc1 (centres unmarked) [Example 383] | 59% | 94% |
| CN(C)C(c1ccc(Cl)cc1)C1CCC(CCNC(=O)COC2CCCN(S(=O)(=O)c3ccccc3)C2)CC1 (centres unmarked) [Example 395] | 54% | 96% |
| CN(C)C(c1ccc(F)cc1)C1CCC(CNC(=O)COCCN(C)S(=O)(=O)c2ccc(F)cc2)CC1 (centres unmarked) [Example 400] | 55% | 103% |
| COc1cc(C)c(S(=O)(=O)N(C)CCOCC(=O)NC2CCC(C(c3ccc(F)cc3)N(C)C)CC2)c(C)c1 (centres unmarked) [Example 422] | 43% | 81% |
| CN(C)C(c1ccc(Cl)cc1)C1CCC(CNC(=O)COC2CCN(S(=O)(=O)c3ccc(Cl)cc3)C2)CC1 (centres unmarked) [Example 384] | 55% | 87% |
| COc1cc(C)c(S(=O)(=O)N(CCOCC(=O)NC2CCC(C(c3cccc(F)c3)N(C)C)CC2)Cc2ccccc2)c(C)c1C (centres unmarked) [Example 419] | 53% | 76% |
| CN(C)C(c1ccc(F)cc1)C1CCC(NC(=O)COCCN(C)S(=O)(=O)c2ccc(Cl)cc2)CC1 (centres unmarked) [Example 406] | 51% | 93% |
| COc1cc(C)c(S(=O)(=O)N2CCN(CCOCC(=O)NCC3CCC(C(c4ccc(F)cc4)N(C)C)CC3)CC2)c(C)c1C (centres unmarked) [Example 366] | 55% | 96% |
| CN(C)C(c1ccc(F)cc1)C1CCC(CNC(=O)COCCN(C)S(=O)(=O)c2ccc(OC(F)(F)F)cc2)CC1 (centres unmarked) [Example 439] | 50% | 94% |
| CN(C)C(c1cccc(F)c1)C1CCC(CCNC(=O)COC2CCN(S(=O)(=O)c3ccccc3)C2)CC1 (centres unmarked) [Example 376] | 62% | 88% |
| CN(C)C(c1ccc(F)cc1)C1CCC(CNC(=O)COCCN2CCN(S(=O)(=O)c3ccccc3)CC2)CC1 (centres unmarked) [Example 433] | 46% | 95% |
| COc1ccc(S(=O)(=O)N2CCCCC2COCC(=O)NCC2CCC(C(c3ccc(Cl)cc3)N(C)C)CC2)cc1OC (centres unmarked) [Example 367] | 60% | 89% |
| COc1ccc(S(=O)(=O)N2Cc3ccccc3CC2COCC(=O)NCCC2CCC(C(c3ccc(F)cc3)N(C)C)CC2)cc1 (centres unmarked) [Example 389] | 58% | 93% |
| CN(C)C(CCc1ccccc1)C1CCC(CNC(=O)COCC2CCCN2S(=O)(=O)c2ccc(Cl)c(Cl)c2)CC1 (centres unmarked) [Example 415] | 55% | 88% |
| CN(C)C(c1ccc(F)cc1)C1CCC(CCNC(=O)COCCN(C)S(=O)(=O)c2c(Cl)cc(Cl)cc2Cl)CC1 (centres unmarked) [Example 386] | 63% | 98% |
